Data on 19 molecules can be found in US11666577B2 (National Institute of Biological Sciences, Beijing, priority 2018, dated 2023).

The test system of the first experiment is HT-29 cells. As to the kind of experiment: Necroptosis assay (TNF-α/Smac mimetic/z-VAD, TSZ-induced) in HT-29 cells. Particulars: Homo sapiens; Series 1 (Table 1) compounds 1-146; HT-29 cells, TNF-α/Smac mimetic/z-VAD, 24 hrs, cell viability by ATP level; read-out: Series 1 compound necroptosis activity. It is filed as cell-based, human. An outline of the steps: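 HT-29 cells were challenged with 20 ng/ml TNF-α, 100 nM Smac mimetic and 20 mM z-VAD while compound was added at the same time (library screen at 10 mM). After 24 h, viability was read as ATP luminescence (CellTiter-Glo) and normalized to DMSO-treated cells; values are means ± SD of duplicates.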
Consider `Cn1c(=O)c2c(nc(S(=O)(=O)CC3CC3)n2C)n(Cc2ccccc2Cl)c1=O` [Compound 136, 3-(2-chlorobenzyl)-8-((cyclopropylmethyl)sulfonyl)-1,7-dimethyl-1H-purine-2,6(3H,7H)-dione], for which the EC50 lay within 1 to 100 µM.
Still for that read-out and setting: in the case of `Cn1c(=O)c2c(nc(S(=O)(=O)CC3CC3)n2C)n(Cc2ccc(F)cc2)c1=O` [Compound 135, 8-((cyclopropylmethyl)sulfonyl)-3-(4-fluorobenzyl)-1,7-dimethyl-1H-purine-2,6(3H,7H)-dione] it was 1 to 100 µM.
On the same count and under the same terms, in the case of `Cn1c(=O)c2c(nc(S(C)(=O)=O)n2C)n(CC2CC2)c1=O` [Compound 102, 3-(cyclopropylmethyl)-1,7-dimethyl-8-(methylsulfonyl)-1H-purine-2,6(3H,7H)-dione] it was 1 to 100 µM; in that of `CNc1cc(C#CCn2c(=O)n(C)c(=O)c3c2nc([S+]([O-])Cc2cc(OC)ccc2OC)n3C)ccn1` (stereo not shown) [Compound 128, 8-((2,5-dimethoxybenzyl)sulfinyl)-1,7-dimethyl-3-(3-(2-(methylamino)pyridin-4-yl)prop-2-yn-1-yl)-3,7-dihydro-1H-purine-2,6-dione], 1 to 100 µM; in that of `Cn1c(=O)c2c(nc(S(C)(=O)=O)n2C)n(C)c1=O` [Compound 4, 1,3,7-trimethyl-8-(methylsulfonyl)-1H-purine-2,6(3H,7H)-dione], 1 to 10 µM.

The experiment is the same for the next values; noted with them: Homo sapiens; Series 2 (Table 2) compounds; HT-29 necroptosis assay; read-out: Series 2 compound necroptosis activity.
For `Cn1c(=O)c2c(nc([S+](C)[O-])n2C)n(CC#Cc2cc(NC(=O)C3CC3)cc(C(F)(F)F)c2)c1=O` (stereo not shown) [Compound 49], the EC50 is above 10 µM.

Still in this experiment, the particulars now being: Series 1 (Table 1) compounds 1-146; HT-29 cells, TNF-α/Smac mimetic/z-VAD, 24 hrs, cell viability by ATP level; read-out: Series 1 compound necroptosis activity.
Consider `CCn1c([S+]([O-])CC)nc2c1c(=O)n(C)c(=O)n2C` (stereo not shown) [Compound 76, 7-ethyl-8-(ethylsulfinyl)-1,3-dimethyl-1H-purine-2,6(3H,7H)-dione], for which the EC50 was in the range of 1 to 1000 µM.
Turning to `CCn1c(SC)nc2c1c(=O)n(C)c(=O)n2C` [Compound 73, 7-ethyl-1,3-dimethyl-8-(methylthio)-1H-purine-2,6(3H,7H)-dione], the EC50 was 1 to 1000 µM.
On the same count and under the same terms, in the case of `CSc1nc2c(c(=O)n(C)c(=O)n2C)n1C` [Compound 2, 1,3,7-trimethyl-8-(methylthio)-1H-purine-2,6(3H,7H)-dione] it was 1 to 1000 µM.
For the molecule `Cn1c(=O)c2c(nc(S(=O)(=O)Cc3cccc(Cl)c3)n2C)n(C)c1=O` [Compound 30, 8-(3-chlorobenzylsulfonyl)-1,3,7-trimethyl-1H-purine-2,6(3H,7H)-dione], the EC50 fell in the range of 1 to 1000 µM.
The same measure, in the same setting: in the case of `CCOc1ccc(OC)c(CS(=O)(=O)c2nc3c(c(=O)n(C)c(=O)n3C)n2C)c1` [Compound 67, 8-(5-ethoxy-2-methoxybenzylsulfonyl)-1,3,7-trimethyl-1H-purine-2,6(3H,7H)-dione] it was 1 to 1000 µM; in that of `COc1cccc(CS(=O)(=O)c2nc3c(c(=O)n(C)c(=O)n3C)n2C)c1` [Compound 36, 8-(3-methoxybenzylsulfonyl)-1,3,7-trimethyl-1H-purine-2,6(3H,7H)-dione], 1 to 1000 µM.
On the same count and under the same terms, in the case of `Cn1c(=O)c2c(nc([S+](C)[O-])n2C)n(C)c1=O` (stereo not shown) [Compound 3, 1,3,7-trimethyl-8-(methylsulfinyl)-1H-purine-2,6(3H,7H)-dione] it was 1 to 1000 µM; in that of `Cn1c(=O)c2c(nc(S(=O)(=O)Cc3ccccn3)n2C)n(C)c1=O` [Compound 48, 1,3,7-trimethyl-8-(pyridin-2-ylmethylsulfonyl)-1H-purine-2,6(3H,7H)-dione], 1 to 1000 µM.

The experiment is the same for the next values; noted with them: Series 1 (Table 1) compounds 147-176; activity extrapolated; read-out: Series 1 compound necroptosis activity (extrapolated).
As to `CCCC(=O)Nc1cccc(C#CCn2c(=O)n(C)c(=O)c3c2nc(S(=O)(=O)CC2CC2)n3C)c1` [Compound 161], the EC50 is 1 to 1000 µM.
On the same count and under the same terms, in the case of `CN(C)S(=O)(=O)c1nc2c(c(=O)n(C)c(=O)n2CC#Cc2cccc(O)c2)n1C` [Compound 158] it was 1 to 1000 µM.
Take `CNc1cc(C#CCn2c(=O)n(C)c(=O)c3c2nc(S(C)(=O)=O)n3C)ccc1N1CCOCC1` [Compound 174]: the EC50 was 1 to 1000 µM.
Still for that read-out and setting: for `Cn1c(=O)c2c(nc(S(C)(=O)=O)n2C)n(CC#Cc2cc(N)cc(Br)c2)c1=O` [Compound 168] the value was 1 to 1000 µM; for `CNCCS(=O)(=O)c1nc2c(c(=O)n(C)c(=O)n2CC#Cc2cccc(O)c2)n1C` [Compound 151], 1 to 1000 µM.
